Source: US7439024B2, “Methods and kits for diagnosing or monitoring autoimmune and chronic inflammatory diseases” (The United States of America as represented by the …, priority 2005, dated 2008)

Columns and labels:
[1] = system: CD70 mRNA; test: Real time RT-PCR of CD70 transcripts relative to β-actin in drug-treated T cells; type: cell-based, human; details: for CD70 transcripts relative to β-actin, normalized to the untreated control: CD4+ T cells stimulated with anti-CD3 + anti-CD28, 5 μm 5-azaC, 50 μm Pca, 20 μm Hyd, 40 μm U0126 or 25 μm PD98059 for 3 days, FIG. 9; for expression of CD70 mRNA relative to that of beta-actin vs untreated cells: T cells, real time RT-PCR, FIG. 1B
Method: Cells and cell culture. Peripheral blood mononuclear cells (PBMCs) were isolated by density-gradient centrifugation. T cells were then isolated by E-rosetting (See, e.g., Golbus et at., Clin Immunol Immunopathol 46, 129 (1988)). […] Where indicated, the cells were cultured in RPMI 1640/10% fetal calf serum (FCS) supplemented with interleukin-2 (IL-2) (See, e.g., Richardson et at., Clin Immunol Immunopathol 55, 368 (1990)), in round-bottomed 5-ml culture tubes (FALCON). Cells were stimulated with 1 μg/ml of PHA (REMEL) for 16 hours, then cultured in 24-well plates at a density of 1×10^6 for an additional 72 hours in the presence of 2-deoxy-5-azaC or 5-azaC (SIGMA-ALDRICH), procainamide (SIGMA-ALDRICH), hydralazine (SIGMA-ALDRICH), or the MEK inhibitors U0126 (PROMEGA) or PD98059 (PROMEGA […]). In other studies, PHA-stimulated PBMCs were cultured in RPMI 1640/10% FCS and treated with indomethacin, chloroquine, hydrocortisone, and 6-mercaptopurine (6-MP) (all from SIGMA-ALDRICH). TT48E, a cloned, CD4+, tetanus toxoid-reactive human T cell line, was cultured as previously described (Comacchia et al., J Immunol 140, 2197 (1988); Richardson et al., Arthritis Rheum 35, 647 (1992)).
(§1) In other studies, T cells were isolated by negative selection using magnetic beads and instructions provided by the manufacturer (Pan T cell Isolation Kit, Miltenyi), and the CD4+ or CD8+ subset was similarly isolated by magnetic cell sorting. […] Purified human CD4+ T cells were first stimulated with plate bound anti-CD3 and soluble anti-CD28.

[2] = system: CD70; test: Flow cytometric analysis of CD70 expression on T cells treated with DNA methylation inhibitors; type: cell-based, human; details: for increase of CD70 MFI on CD4+ T cells: CD4+ T cell subset; for CD70 expression on PHA-stimulated T cells, treated vs untreated: polyclonal T cells, 1 μM 5-azaC 3 days, procainamide increasing dosage, 25 μM PD98059 and dose response, 40 μM U0126 and dose response, FIG. 2; for CD70 expression on CD4+ T cells: summary statement in Example 8; for increase of CD70 expression on T cell clone TT48E: 3 days, 6 serial experiments
[3] = system: CD70 promoter; test: Bisulfite sequencing of the CD70 promoter in drug-treated CD4+ T cells; type: cell-based, human; details: for methylation of the 10 CG pairs in the CD70 promoter region between −515 and −423: CD4+ T cells stimulated with anti-CD3 and anti-CD28, vs stimulated untreated controls, FIGS. 13, 14
From the text: as §1
Bisulfite sequencing. The putative CD70 promoter was identified using the published CD70 cDNA sequence and Tfsitescan software. Deoxycytosine (dC) and deoxymethylcytosine (d^mC) bases in the gene promoter and 5′ flanking sequences were identified by bisulfite treatment of purified DNA followed by nested PCR amplification of 3 sequential fragments to span the entire region. The primers were designed to avoid CG pairs and to account for the conversion of dC to dU by the bisulfite. EcoRI sites were added to the forward primers, and XbaI to the reverse, to facilitate cloning. The amplified fragments were then cloned into PBS+, and 5 clones sequenced for each fragment. The primers used were: […]
The effect of lupus and DNA methylation inhibitors on a regulatory element in the CD70 promoter was examined. DNA was isolated from the CD4+ T cells of 7 healthy individuals or 6 lupus patients, bisulfite treated, the region from −466-−515, containing 6 CG pairs was amplified by PCR, and 5 fragments sequenced from each individual. The average methylation status of the 6 CG pairs for healthy versus lupus individuals is shown (FIG. 8, NI and Lupus, respectively). CD4+ T cells from 5 individuals were also stimulated with PHA, treated with the irreversible DNA methyltransferase inhibitor 5-azacytidine (5-azaC), and the methylation status of the 6 CG pairs similarly analyzed from the 25 fragments sequenced (FIG. 8, 5-azaC). […] Results are presented as the mean±SEM of the average methylation of the 6 CG pairs, measured from the 10-35 determinations/group.
The effects of the DNA methylation inhibitors on the methylation status of this region were then compared. […] Again, 5 cloned fragments were sequenced from each control, for a total of 35 determinations per CG pair. […] FIG. 14 compares the average methylation for the 10 CG pairs (−515 to −423) in the T cells treated with DNA methylation inhibitors relative to stimulated, untreated controls.

[4] = system: autologous B cells; test: T cell and B cell costimulation assay, IgG ELISA of supernatants; type: cell-based, human; details: P<0.05; for IgG produced by B cells cultured with drug-treated cloned T cells vs untreated T cells: TT48E cloned CD4+ T cell line treated 3 days, autologous B cells, without PWM, FIG. 4; for IgG secreted by B cells cultured with drug-treated T cells vs same numbers of untreated T cells: unfractionated PHA-stimulated T cells treated 3 days, cultured with PWM and autologous B cells 8 days, FIG. 3
Method: T cell and B cell costimulation assays. E-rosette-purified T cells were stimulated for 16 hours with PHA and then treated with the indicated chemicals for an additional 72 hours as described above. Where indicated, T cell subsets were isolated by negative selection using magnetic beads (Miltenyi). B cells (1-4×10^5) enriched by negative selection using magnetic beads (Miltenyi) and assessed to be 70-85% pure using PE-conjugated anti-human CD21 (PHARMINGEN), were added to washed, drug-treated autologous T cells, at T cell to B cell ratios of 4:1, 2:1, 1:1, 1:2, and 1:4. Where indicated, 0.625 μg/ml of PWM (ALDRICH) was added. The cells were cultured in RPMI 1640/10% FBS/penicillin/streptomycin for 8 days in 96-well roundbottomed plates (Costar) containing a 200 μl total volume (performed in duplicate). Cells were supplemented with 50 μl of medium on day 4. Where indicated, 1 μg/ml of anti-CD70 monoclonal antibody (HNE51) (DAKO) was added to the cultures. TT48E cells were similarly stimulated with PHA (1 μg/ml) for 18 hours, treated with the indicated drugs for 3 days, then similarly cultured with autologous B cells for 8 days. Where indicated, the TT48E cells were pretreated with 1 μg/ml of anti-CD70 for 30 minutes at […], then washed and added to the B cells, according to protocols described by others (See, e.g., Kobata et at., Proc Natl Acad Sci U S A 92, 11249 (1995)).
IgG enzyme-linked immunosorbent assays (ELISAs). IgG was measured in the supernatants of the T cell-B cell cultures (See, e.g., Richardson et al., Clin Immunol Immunopathol 55, 368 (1990)). Briefly, 96-well flatbottomed polystyrene plates (Costar) were coated with 1 μg/ml of goat anti-human IgG (Southern Biotech) and washed. Unreacted combining sites were sealed with 3% bovine serum albumin (BSA) in phosphate buffered saline (PBS) by incubation at 4° C. for 16 hours. Pooled supernatants from duplicate wells were diluted 1:5 in PBS/1% BSA, and 50 μl was added to the wells. Serial dilutions of purified human IgG (Sigma) were used for quantitation. Following incubation and washing, goat anti-human IgG conjugated with horseradish peroxidase (Southern Biotech) was added, and cells were incubated for 2 hours at room temperature. The wells were washed 3 times with PBS/0.1% Tween 20, and color was developed using Sigma Fast tablets. The plates were read at 405 nm using a SpectraMax spectrophotometer (Molecular Devices). All determinations were performed in quadruplicate.
Since CD70 participates in T cell-dependent B cell stimulation (See e.g., Kobata et al., Proc Natl Acad Sci USA 92, 11249 (1995)), the effects of DNA methylation inhibitors on CD70-dependent B cell help were examined. […] Eight days later, total IgG in the supernatants was measured by ELISA. […]

[5] = system: CD70; details: PHA-stimulated purified T cells, 3 days after treatment, oligonucleotide arrays, 2 independent experiments, mean±SEM
[6] = system: CD70; test: CD70 expression on CD4+ cells of PBMCs cultured with medications commonly used to treat lupus (flow cytometry); type: cell-based, human; details: PBMCs with or without PHA, 24 hours, graded concentrations 1-100 μM

Compound | CD70 transcripts relative to β-actin, normalized to the untreated control [1] | CD70 expression on PHA-stimulated T cells, treated vs untreated [2] | CD70 expression on CD4+ T cells [2] | methylation of the 10 CG pairs in the CD70 promoter region between −515 and −423 [3] | CD70 expression on stimulated or unstimulated CD4+ cells [6] | also measured
COc1cccc(-c2cc(=O)c3ccccc3o2)c1N [PD98059] | increase CD70 transcripts | increase in CD70 expression with treatment | increased CD70 expression | appears to demethylate | – | increase of CD70 MFI on CD4+ T cells ([2]; 25 μM, P=0.032, n=3): 1.63±0.43 fold
Nc1ncn([C@@H]2O[C@H](CO)[C@@H](O)[C@H]2O)c(=O)n1 [5-azaC, 5-azacytidine] | increase CD70 transcripts | small increase | increased CD70 expression | hypomethylated compared to controls | – | expression of CD70 mRNA relative to that of beta-actin vs untreated cells [1]: increased the expression of CD70 mRNA; increase of CD70 expression on T cell clone TT48E ([2]; 1 μM, P=0.048): 1.69±0.33 fold; increase of CD70 MFI on CD4+ T cells ([2]; 1 μM, P=0.025, n=5): 1.53±0.45 fold; concentration producing the greatest effect on CD70 expression ([2]; range of 5-azaC concentrations, P=0.001 overall, n=5 experiments, FIG. 2B): 1 µM; IgG produced by B cells cultured with drug-treated cloned T cells vs untreated T cells [4]: greater amounts of IgG; IgG secreted by B cells cultured with drug-treated T cells vs same numbers of untreated T cells [4]: greater amounts of IgG; CD70 expression increase in treated cells relative to untreated controls [5]: > 2 fold
COc1ccc2c(c1)c(CC(=O)O)c(C)n2C(=O)c1ccc(Cl)cc1 [indomethacin] | – | – | – | – | No increase in CD70 expression | –
Nc1ncn([C@H]2C[C@H](O)[C@@H](CO)O2)c(=O)n1 [2-deoxy-5-azaC] | – | – | – | – | – | CD70 expression increase in treated cells relative to untreated controls [5]: 2.6±0.6 fold
C[C@]12CCC(=O)C=C1CC[C@@H]1[C@@H]2[C@@H](O)C[C@@]2(C)[C@H]1CC[C@]2(O)C(=O)CO [hydrocortisone] | – | – | – | – | No increase in CD70 expression | –
N#CC(=C(/N)Sc1ccccc1N)/C(C#N)=C(\N)Sc1ccccc1N [U0126] | increase CD70 transcripts | increase in CD70 expression with treatment | increased CD70 expression | appears to demethylate | – | expression of CD70 mRNA relative to that of beta-actin vs untreated cells [1]: increased the expression of CD70 mRNA; increase of CD70 expression on T cell clone TT48E ([2]; 40 μM, P=0.004): 1.87±0.37 fold; increase of CD70 MFI on CD4+ T cells ([2]; 40 μM, P=0.039, n=4): 3.20±0.44 fold; increase of CD70 MFI in T cells treated with U0126 (FIG. 2I) ([2]; P=0.085, stated in the passage on the smaller CD8+ increase): 2.83±0.95 fold; IgG produced by B cells cultured with drug-treated cloned T cells vs untreated T cells [4]: greater amounts of IgG; IgG secreted by B cells cultured with drug-treated T cells vs same numbers of untreated T cells [4]: greater amounts of IgG
CCN(CC)CCNC(=O)c1ccc(N)cc1 [procainamide] | increase CD70 transcripts | increase in the ratio of the mean fluorescence intensity (MFI) of CD70 expression | increased CD70 expression | appears to demethylate | – | methylation status of the CD70 promoter region from −466-−515 containing 6 CG pairs ([3]; PHA-stimulated CD4+ T cells, FIG. 8): demethylate this region
Sc1ncnc2nc[nH]c12 [6-MP, 6-mercaptopurine] | – | – | – | – | No increase in CD70 expression | –
CCN(CC)CCCC(C)Nc1ccnc2cc(Cl)ccc12 (stereo not drawn) [chloroquine] | – | – | – | – | No increase in CD70 expression | –
